pIC50: −log10 of the molar value. Like-named read-outs stand apart in the source and are kept apart here.
System: 134 cancer cell lines
Experiment: Cell viability assay (ATPlite, 72 hours), IC50 on cancer cell line panel

Measured: pIC50

CNC(=O)c1ccc(-c2cnc3ncc(Cc4ccc5ncccc5c4)n3n2)cc1F [capmatinib]
4.55: Homo sapiens, CCRF-CEM, read-out: IC50 in cell proliferation assay
8.73: Homo sapiens, LoVo, read-out: IC50 in cell proliferation assay
8.91: Homo sapiens, Hs746T, read-out: IC50 in cell proliferation assay
5.08: Homo sapiens, HCC827, read-out: IC50 in cell proliferation assay
4.53: Homo sapiens, A-427, read-out: IC50 in cell proliferation assay
< 4.50: HEC-6, read-out: IC50 in cell proliferation assay | Homo sapiens, 769-P, read-out: IC50 in cell proliferation assay | Homo sapiens, 786-0, read-out: IC50 in cell proliferation assay | Homo sapiens, A 172, read-out: IC50 in cell proliferation assay | Homo sapiens, A204, read-out: IC50 in cell proliferation assay | Homo sapiens, A498, read-out: IC50 in cell proliferation assay | Homo sapiens, A549, read-out: IC50 in cell proliferation assay | Homo sapiens, A704, read-out: IC50 in cell proliferation assay | Homo sapiens, A-375, read-out: IC50 in cell proliferation assay | Homo sapiens, ACHN, read-out: IC50 in cell proliferation assay | Homo sapiens, AN3-CA, read-out: IC50 in cell proliferation assay | Homo sapiens, ASPC1, read-out: IC50 in cell proliferation assay | Homo sapiens, BT-20, read-out: IC50 in cell proliferation assay | Homo sapiens, BT-474, read-out: IC50 in cell proliferation assay | Homo sapiens, BT-549, read-out: IC50 in cell proliferation assay | Homo sapiens, BXPC-3, read-out: IC50 in cell proliferation assay | Homo sapiens, C-33-A, read-out: IC50 in cell proliferation assay | Homo sapiens, CAL-27, read-out: IC50 in cell proliferation assay | Homo sapiens, CCF-STTG1, read-out: IC50 in cell proliferation assay | Homo sapiens, COLO 205, read-out: IC50 in cell proliferation assay | Homo sapiens, COLO-829, read-out: IC50 in cell proliferation assay | Homo sapiens, DLD-1, read-out: IC50 in cell proliferation assay | Homo sapiens, DU-145, read-out: IC50 in cell proliferation assay | Homo sapiens, Daoy, read-out: IC50 in cell proliferation assay | Homo sapiens, DoTc2-4510, read-out: IC50 in cell proliferation assay | Homo sapiens, EOL1, read-out: IC50 in cell proliferation assay | Homo sapiens, FaDu, read-out: IC50 in cell proliferation assay | Homo sapiens, G-361, read-out: IC50 in cell proliferation assay | Homo sapiens, HCC4006, read-out: IC50 in cell proliferation assay | Homo sapiens, HCT-15, read-out: IC50 in cell proliferation assay | Homo sapiens, HCT-116, read-out: IC50 in cell proliferation assay | Homo sapiens, HEC-1, read-out: IC50 in cell proliferation assay | Homo sapiens, HEC-1B, read-out: IC50 in cell proliferation assay | Homo sapiens, HL-60, read-out: IC50 in cell proliferation assay | Homo sapiens, HT, read-out: IC50 in cell proliferation assay | Homo sapiens, HT-1080, read-out: IC50 in cell proliferation assay | Homo sapiens, Hs-578T, read-out: IC50 in cell proliferation assay | Homo sapiens, HuTu80, read-out: IC50 in cell proliferation assay | Homo sapiens, J82, read-out: IC50 in cell proliferation assay | Homo sapiens, Jurkat E6.1, read-out: IC50 in cell proliferation assay | Homo sapiens, K562, read-out: IC50 in cell proliferation assay | Homo sapiens, KATO III, read-out: IC50 in cell proliferation assay | Homo sapiens, KG-1, read-out: IC50 in cell proliferation assay | Homo sapiens, KLE, read-out: IC50 in cell proliferation assay | Homo sapiens, KU812, read-out: IC50 in cell proliferation assay | Homo sapiens, LC-2-ad, read-out: IC50 in cell proliferation assay | Homo sapiens, LNCaP-Clone-FGC, read-out: IC50 in cell proliferation assay | Homo sapiens, LS174T, read-out: IC50 in cell proliferation assay | Homo sapiens, LS-411N, read-out: IC50 in cell proliferation assay | Homo sapiens, MCF7, read-out: IC50 in cell proliferation assay
4.67: Homo sapiens, DU-4475, read-out: IC50 in cell proliferation assay
5.26: Homo sapiens, AU565, read-out: IC50 in cell proliferation assay
5.03: Homo sapiens, KMS-11, read-out: IC50 in cell proliferation assay
4.60: Homo sapiens, Kasumi 1, read-out: IC50 in cell proliferation assay
